Measured values published in ChEMBL document CHEMBL1201862, “PubChem BioAssay data set” (2004).
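In this assay, cells in 96-well plates receive the compound at five concentrations for 48 hours. Endpoints are linearly interpolated between the surrounding concentrations. GI50 is the concentration that inhibits growth by half.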 Active and inactive are the calls of the source. Rule as the data show it: active = GI50 up to about 1.1 µM and inactive = higher.

What was measured:
Test in all cases: DTP human tumour cell line panel, 48 h
786-0 = test system: 786-0
A549 = test system: A549
BT-549 = test system: BT-549
DU-145 = test system: DU-145
HCC 2998 = test system: HCC 2998
HCT-15 = test system: HCT-15
HOP-92 = test system: HOP-92
HT-29 = test system: HT-29
MCF7 = test system: MCF7
Malme-3M = test system: Malme-3M
NCI-H460 = test system: NCI-H460
NCI-H522 = test system: NCI-H522
OVCAR-4 = test system: OVCAR-4
RPMI-8226 = test system: RPMI-8226
SN12C = test system: SN12C
SNB-19 = test system: SNB-19
SR = test system: SR
UACC-62 = test system: UACC-62
UO-31 = test system: UO-31
SK-OV-3 = test system: SK-OV-3

SMILES | GI50 (786-0) | GI50 (A549) | GI50 (BT-549) | GI50 (DU-145) | GI50 (HCC 2998) | GI50 (HCT-15) | GI50 (HOP-92) | GI50 (HT-29) | GI50 (MCF7) | GI50 (Malme-3M) | GI50 (NCI-H460) | GI50 (NCI-H522) | GI50 (OVCAR-4) | GI50 (RPMI-8226) | GI50 (SN12C) | GI50 (SNB-19) | GI50 (SR) | GI50 (UACC-62) | GI50 (UO-31) | GI50 (SK-OV-3)
CCOC(=O)C1C[C@H]2CO[C@H](c3ccccc3)N2C1=O (stereo not given in full) | > 100 µM (inactive) | > 100 µM (inactive) | > 100 µM (inactive) | > 100 µM (inactive) | 73.8 µM (inactive) | > 100 µM | > 100 µM (inactive) | > 100 µM (inactive) | > 100 µM (inactive) | > 100 µM (inactive) | > 100 µM (inactive) | > 100 µM (inactive) | > 100 µM (inactive) | > 100 µM (inactive) | > 100 µM (inactive) | > 100 µM (inactive) | > 100 µM (inactive) | > 100 µM (inactive) | > 100 µM (inactive) | –
CC(=O)CC1(CBr)Nc2ccc([N+](=O)[O-])cc2NC1=O (stereo not given) | 31.2 µM (inactive) | > 100 µM (inactive) | 58.1 µM (inactive) | 42.1 µM (inactive) | > 100 µM (inactive) | 82.6 µM | 59.6 µM (inactive) | 90.4 µM (inactive) | 40.9 µM (inactive) | 92.3 µM (inactive) | > 100 µM (inactive) | 18.5 µM (inactive) | 81.8 µM (inactive) | 44.3 µM (inactive) | 93.1 µM (inactive) | > 100 µM (inactive) | 34 µM (inactive) | > 100 µM (inactive) | 61.9 µM (inactive) | > 100 µM (inactive)
O=C1/C(=C/c2ccc([N+](=O)[O-])cc2)CCCc2ccccc21 | > 100 µM (inactive) | > 100 µM (inactive) | > 100 µM (inactive) | > 100 µM (inactive) | > 100 µM (inactive) | 69.2 µM | > 100 µM (inactive) | > 100 µM (inactive) | > 100 µM (inactive) | > 100 µM (inactive) | > 100 µM (inactive) | > 100 µM (inactive) | > 100 µM (inactive) | > 100 µM (inactive) | > 100 µM (inactive) | 32.1 µM (inactive) | > 100 µM (inactive) | 91 µM (inactive) | > 100 µM (inactive) | > 100 µM (inactive)
N#CC1C=Cc2ccccc2N1C(=O)Oc1ccccc1 (stereo not given) | 56.5 µM (inactive) | 49.2 µM (inactive) | 53.5 µM (inactive) | 31.9 µM (inactive) | 40.1 µM (inactive) | 42.1 µM | 58.6 µM (inactive) | 44.3 µM (inactive) | 41.8 µM (inactive) | 48.4 µM (inactive) | 41.4 µM (inactive) | 22 µM (inactive) | 40.6 µM (inactive) | 21.3 µM (inactive) | 45.9 µM (inactive) | 74.8 µM (inactive) | 33.8 µM (inactive) | 52.7 µM (inactive) | 41.7 µM (inactive) | –
COc1cccc(-c2nc(O)c3ccccc3n2)c1 | 14.9 µM (inactive) | 21 µM (inactive) | 24.8 µM (inactive) | 29.1 µM (inactive) | 22.3 µM (inactive) | 18 µM | 27 µM (inactive) | 21.2 µM (inactive) | 22.1 µM (inactive) | 21.6 µM (inactive) | 23.2 µM (inactive) | 23.2 µM (inactive) | – | – | 33.9 µM (inactive) | 19.8 µM (inactive) | > 100 µM (inactive) | 20.1 µM (inactive) | 22.4 µM (inactive) | 19.7 µM (inactive)
COc1ccc2c(CCNS(=O)(=O)c3ccccc3)c(C(C)=O)[nH]c2c1 | 49.5 µM (inactive) | 54.3 µM (inactive) | 33.8 µM (inactive) | > 80.2 µM (inactive) | > 100 µM (inactive) | > 75.2 µM | > 100 µM (inactive) | > 46.8 µM (inactive) | 51.4 µM (inactive) | > 100 µM (inactive) | > 100 µM (inactive) | 20.5 µM (inactive) | 51.6 µM (inactive) | > 100 µM (inactive) | 38.5 µM (inactive) | 66.7 µM (inactive) | 64.6 µM (inactive) | > 58.5 µM (inactive) | 9.51 µM (inactive) | > 80.9 µM (inactive)
COc1ccc2c(c1)C(N)=C(c1ccccc1)C2=O | 80.4 µM (inactive) | 64.6 µM (inactive) | > 100 µM (inactive) | > 100 µM (inactive) | 81.8 µM (inactive) | > 100 µM | > 100 µM (inactive) | > 100 µM (inactive) | > 100 µM (inactive) | > 100 µM (inactive) | > 100 µM (inactive) | > 100 µM (inactive) | > 100 µM (inactive) | 96.4 µM (inactive) | 99.3 µM (inactive) | 24.4 µM (inactive) | 8.75 µM (inactive) | > 100 µM (inactive) | – | 49 µM (inactive)
